Strand notation (5' to 3'): a small letter for the sugar, then the base; units joined by * are phosphorothioate-linked, units joined directly phosphodiester-linked; [ ] holds rarer units or linkages, { } end groups; capitals alone tell only the bases. k = constrained ethyl (cEt); [5mC] = 5-methylcytosine; d = 2'-deoxy (DNA)

Experimental findings from patent publication US11214803B2, “Modulators of YAP1 expression” (Ionis Pharmaceuticals, Inc., priority 2019, dated 2022) are described below.

The first data set has as its system Yap1 mRNA. Briefly: Antisense inhibition of human Yap1 in A-431 cells by cEt gapmers, single dose (Example 4, RTS4814). The note with it: Table 14; A-431 cells, 5,000 cells per well, free uptake, 2,000 nM, approximately 48 hours; RTS4814; normalized to RIBOGREEN; Yap1 mRNA relative to untreated control; * = targets amplicon region of primer probe set. It is filed as cell-based. The method in brief: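 A-431 cells took up 3-10-3 cEt gapmers (16-mer, full phosphorothioate, 5-methylcytosines) by free uptake at 2,000 nM for about 48 h. Yap1 mRNA was quantified by qRT-PCR, normalized to total RNA (RIBOGREEN), and reported as % of untreated control.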
Turning to “1076032 (kT*kA*kT*dA*dA*dT*dT*dT*d[5mC]*d[5mC]*d[5mC]*dT*dG*kA*kT*k[5mC]; antisense) [Compound 1076032]”, the “YAP1 (% UTC)” value was determined as 105 % UTC.

As to “1074976 (antisense kT*kT*k[5mC]*dT*dA*dT*dT*dG*dG*dA*dA*dG*dA*k[5mC]*k[5mC]*kA) [Compound 1074976]”, the “YAP1 (% UTC)” value is listed as 35 % UTC.

In the case of “1075200 (antisense k[5mC]*kA*kT*dA*dT*dT*dA*dA*d[5mC]*dT*dA*dG*dA*kT*kG*kA) [Compound 1075200]”, the “YAP1 (% UTC)” value amounted to 120 % UTC.

Turning to “1076160 (kT*kT*kA*dT*dA*d[5mC]*dT*dA*dG*dT*dA*d[5mC]*dG*kG*k[5mC]*kA; antisense) [Compound 1076160]”, the “YAP1 (% UTC)” value was 20 % UTC.

In the case of “1074912 (antisense kA*kT*k[5mC]*d[5mC]*d[5mC]*dG*dA*dG*dT*dG*dG*dG*d[5mC]*kT*kA*kA) [Compound 1074912]”, the “YAP1 (% UTC)” value stood at 85 % UTC.

Regarding “1076480 (antisense kG*kT*kA*dA*dA*dT*dA*dT*d[5mC]*d[5mC]*dA*dT*dT*kA*k[5mC]*k[5mC]) [Compound 1076480]”, the “YAP1 (% UTC)” value is listed as 72 % UTC.

Consider “1076096 (kA*kA*kT*dA*dA*dT*dA*dA*dA*d[5mC]*dG*dA*dT*kT*k[5mC]*kT; antisense) [Compound 1076096]”, for which the “YAP1 (% UTC)” value turned out to be 71 % UTC.

With “1075648 (kT*k[5mC]*kA*dA*dT*dA*dA*dA*dG*dT*dG*dG*dG*kA*k[5mC]*kT; antisense) [Compound 1075648]”, the “YAP1 (% UTC)” value worked out at 67 % UTC.

For the substance “1075424 (antisense kT*kT*kA*dT*dT*dA*dA*dT*d[5mC]*d[5mC]*dT*dG*dT*k[5mC]*k[5mC]*kA) [Compound 1075424]”, the “YAP1 (% UTC)” value is reported as 18 % UTC.

For the substance “1076000 (k[5mC]*k[5mC]*kT*dA*dA*dT*dA*dT*dG*dA*d[5mC]*dT*d[5mC]*k[5mC]*kT*kT; antisense) [Compound 1076000]”, the “YAP1 (% UTC)” value was 4 % UTC.

Regarding “1074528 (k[5mC]*kT*kG*d[5mC]*d[5mC]*d[5mC]*d[5mC]*dA*dA*d[5mC]*d[5mC]*dA*dG*kA*kT*kT; antisense) [Compound 1074528]”, the “YAP1 (% UTC)” value is given as 25 % UTC.

“1074784 (k[5mC]*k[5mC]*kA*dT*dA*dA*dG*dT*dA*dG*dA*dT*d[5mC]*kT*kA*kA; antisense) [Compound 1074784]”: the “YAP1 (% UTC)” value was found to be 25 % UTC.

The data set is the same for the next values; noted with them: Table 15; A-431 cells, 5,000 cells per well, free uptake, 2,000 nM, approximately 48 hours; RTS4814; normalized to RIBOGREEN; Yap1 mRNA relative to untreated control; * = targets amplicon region of primer probe set.
Consider “1075169 (antisense kA*kA*kA*dA*d[5mC]*dG*dG*dA*dG*dT*dA*dA*dT*kG*k[5mC]*k[5mC]) [Compound 1075169]”, for which the “YAP1 (% UTC)” value is on record as 39 % UTC.

As for “1075937 (kA*k[5mC]*kT*dT*dA*dT*dA*dT*dT*d[5mC]*dT*d[5mC]*dT*k[5mC]*k[5mC]*kG; antisense) [Compound 1075937]”, the “YAP1 (% UTC)” value turned out to be 36 % UTC.

On to “1074817 (k[5mC]*kT*kG*dA*dA*dT*dA*dT*dT*dG*d[5mC]*d[5mC]*dA*k[5mC]*k[5mC]*k[5mC]; antisense) [Compound 1074817]”, for which the “YAP1 (% UTC)” value was found to be 8 % UTC.

On to “1074337 (antisense kG*kA*kG*dT*d[5mC]*d[5mC]*d[5mC]*dA*d[5mC]*d[5mC]*dA*dT*d[5mC]*k[5mC]*kT*kG) [Compound 1074337]”, for which the “YAP1 (% UTC)” value is on record as 10 % UTC.

The data set is the same for the next values; noted with them: Table 16; A-431 cells, 5,000 cells per well, free uptake, 2,000 nM, approximately 48 hours; RTS4814; normalized to RIBOGREEN; Yap1 mRNA relative to untreated control cells.
As to “1074818 (kA*k[5mC]*kT*dG*dA*dA*dT*dA*dT*dT*dG*d[5mC]*d[5mC]*kA*k[5mC]*k[5mC]; antisense) [Compound 1074818]”, the “YAP1 (% UTC)” value is 12 % UTC.

As for “1076354 (kG*kA*kT*dT*dA*dA*dA*d[5mC]*dA*dT*dT*d[5mC]*dG*kG*kA*kT; antisense) [Compound 1076354]”, the “YAP1 (% UTC)” value worked out at 13 % UTC.

For the substance “1075394 (kT*k[5mC]*kT*dT*dA*dA*d[5mC]*d[5mC]*dT*dA*dT*dG*d[5mC]*k[5mC]*kA*kA; antisense) [Compound 1075394]”, the “YAP1 (% UTC)” value was 27 % UTC.

Staying with this data set, now noted: Table 17; A-431 cells, 5,000 cells per well, free uptake, 2,000 nM, approximately 48 hours; RTS4814; normalized to RIBOGREEN; Yap1 mRNA relative to untreated control cells.
With “1075491 (antisense kG*kA*k[5mC]*dG*dG*dA*dA*dG*dT*dT*dG*d[5mC]*dA*kA*kG*kG) [Compound 1075491]”, the “YAP1 (% UTC)” value is recorded as 93 % UTC.

For the substance “1074595 (antisense kT*kA*kG*dA*dA*dG*dT*dA*dG*dG*dA*dG*d[5mC]*kA*kA*kG) [Compound 1074595]”, the “YAP1 (% UTC)” value is on record as 4 % UTC.

In the case of “1076483 (antisense kA*k[5mC]*kG*dG*dG*dA*dA*dA*dT*d[5mC]*dA*dT*dA*kT*kA*kG) [Compound 1076483]”, the “YAP1 (% UTC)” value is reported as 5 % UTC.

For the substance “1076323 (k[5mC]*kA*kA*dT*dT*dT*dA*d[5mC]*dA*dA*dG*dT*dG*kA*kG*k[5mC]; antisense) [Compound 1076323]”, the “YAP1 (% UTC)” value is listed as 5 % UTC.

Consider “1076131 (kT*kA*kT*dT*dA*dT*dG*dA*dG*dG*dA*d[5mC]*dT*kG*kA*kT; antisense) [Compound 1076131]”, for which the “YAP1 (% UTC)” value is recorded as 23 % UTC.

Consider “1075715 (kG*kA*kA*dT*dT*dA*d[5mC]*dA*dA*dT*d[5mC]*dA*dA*k[5mC]*k[5mC]*kT; antisense) [Compound 1075715]”, for which the “YAP1 (% UTC)” value was determined as 12 % UTC.

“1075235 (antisense kA*kG*kT*dA*dA*dA*dT*dA*d[5mC]*dT*d[5mC]*dT*dA*kG*kT*kT) [Compound 1075235]”: the “YAP1 (% UTC)” value came out at 38 % UTC.

As to “1076291 (kG*kA*kT*dT*dA*dA*dT*dG*dG*dT*dG*dG*d[5mC]*kA*kT*kT; antisense) [Compound 1076291]”, the “YAP1 (% UTC)” value came to 4 % UTC.

The same data set, now with this note: Yap1 mRNA remaining as percent of untreated control; 3-10-3 cEt gapmers; A-431 cells; Table 36.
For “1075510 (kG*kA*kA*dT*dA*dA*d[5mC]*dA*d[5mC]*dA*dT*dA*dA*kT*k[5mC]*k[5mC]; antisense) [compound 1075510]”, the “YAP1 (% UTC)” value is recorded as 83 % UTC.

As for “1075574 (antisense kA*kG*kT*d[5mC]*dA*dA*dG*dG*dA*dA*d[5mC]*d[5mC]*dT*kT*k[5mC]*kT) [compound 1075574]”, the “YAP1 (% UTC)” value was determined as 47 % UTC.

Regarding “1074902 (antisense k[5mC]*kT*kA*dT*dT*dA*dA*d[5mC]*dT*dT*dT*dT*dG*kG*kG*k[5mC]) [compound 1074902]”, the “YAP1 (% UTC)” value amounted to 54 % UTC.

On to “1076278 (kA*kA*kT*dA*dA*dG*dG*dA*d[5mC]*dA*dG*dG*dA*k[5mC]*k[5mC]*k[5mC]; antisense) [compound 1076278]”, for which the “YAP1 (% UTC)” value was 29 % UTC.

As for “1074998 (antisense k[5mC]*kA*k[5mC]*dG*d[5mC]*dG*dA*d[5mC]*d[5mC]*dT*dA*d[5mC]*dT*kA*kA*kG) [compound 1074998]”, the “YAP1 (% UTC)” value stood at 61 % UTC.

As to “1074134 (k[5mC]*kG*k[5mC]*dG*dG*d[5mC]*d[5mC]*d[5mC]*d[5mC]*dG*d[5mC]*dA*dT*k[5mC]*k[5mC]*k[5mC]; antisense) [compound 1074134]”, the “YAP1 (% UTC)” value was 79 % UTC.

Staying with this data set, now noted: Yap1 mRNA remaining as percent of untreated control; 3-10-3 cEt gapmers; A-431 cells; Table 37.
With “1075607 (antisense kA*kA*kA*dA*d[5mC]*dG*dG*dT*dG*dT*dG*dA*dA*kG*kA*kA) [compound 1075607]”, the “YAP1 (% UTC)” value was found to be 45 % UTC.

In the case of “1075383 (antisense kA*kA*kT*dT*dA*dT*dT*dA*d[5mC]*d[5mC]*d[5mC]*dT*dA*k[5mC]*kT*k[5mC]) [compound 1075383]”, the “YAP1 (% UTC)” value stood at 45 % UTC.

In the case of “1076343 (antisense kA*kG*kA*d[5mC]*dT*dA*dA*dA*dT*d[5mC]*dT*dT*d[5mC]*k[5mC]*k[5mC]*kT) [compound 1076343]”, the “YAP1 (% UTC)” value is 8 % UTC.

In the case of “1075095 (k[5mC]*kT*kT*dG*dA*dA*dA*dA*d[5mC]*dA*dA*dG*d[5mC]*k[5mC]*kA*k[5mC]; antisense) [compound 1075095]”, the “YAP1 (% UTC)” value is listed as 63 % UTC.
